Data as given in patent publication US20070066570A1, “Methods for treating sleep disorders” (priority 2003, published 2007).

Tested on: Adult, male Wistar rats
Experiment: Sleep-wakefulness monitoring (EEG/EMG, SCORE-2000) in rats: NREM sleep cumulation and longest uninterrupted sleep bout
Format: in vivo, rat
Conditions: for LUSB (longest uninterrupted sleep bout each hour, mean adjusted for baseline and vehicle control) / NREM (mean maximum cumulation of NREM sleep over baseline, adjusted for baseline and vehicle control): intraperitoneal bolus at CT-18, male Wistar rats; for Increase of NREM sleep cumulation versus vehicle control (FIGS. 1-3), in words / Increase of LUSB versus vehicle control (FIGS. 4-6), in words: rats
Experimental: Sleep-wakefulness, locomotor activity and body temperature were monitored in vivo with the disclosed racemic sleep-inducing agent 1 and its R and S isomers 1-R and 1-S. Adult, male Wistar rats (250 g at time of surgery, Charles River Laboratories, Wilmington Mass.) were anesthetized (Nembutal, 62 mg/kg) and surgically prepared with a cranial implant to permit chronic electro-encephalogram (EEG) and electromyogram (EMG) recording. Body temperature and locomotor activity were monitored via a miniature transmitter (Mini-Mitter, Bend, Oreg.) surgically placed in the abdomen. The cranial implant consisted of stainless steel screws (two frontal [+3.2 AP from bregma, ±2.0 ML] and two occipital [−6.9 AP, ±5.5 ML]) for EEG recording. Two Teflon®-coated stainless steel wires were positioned under the nuchal trapezoid muscles for EMG recording. All leads were soldered to a miniature connector prior to surgery, and gas sterilized in ethylene oxide. The implant assembly was affixed to the skull with dental acrylic. A minimum of three weeks was allowed for surgical recovery.
Each rat was permanently housed in its own individual recording cage located within separate, ventilated compartments of custom- designed stainless steel cabinets. Each cage was enhanced with a filter-top riser and low-torque swivel-commutator. Food and water were available ad libitum. A 24-hr light-dark cycle (12 hours light, 12 hours dark) was maintained throughout the study using 4-watt fluorescent bulbs 5 cm from the cage. Animals were undisturbed for at least 48 hours before and after treatments.
Sleep and wakefulness were determined using “SCORE-2000™” (Hypnion, Worcester, Mass.)—an internet-based sleep-wake and physiological monitoring system. The system monitored amplified EEG (bandpass 1-30 Hz; digitization rate 400 Hz), integrated EMG (bandpass 10-100 Hz), body temperature and non-specific locomotor activity (LMA) via telemetry, and drinking activity, continuously and simultaneously. Arousal states were classified on-line as non-REM (NREM) sleep, REM sleep, wake, or theta-dominated wake every 10 seconds using EEG feature extraction and pattern-matching algorithms. […] The classification algorithm used individually-taught EEG-arousal-state templates, plus EMG criteria to differentiate REM sleep from theta-dominated wakefulness, plus behavior-dependent contextual rules (e.g., if the animal was drinking, it is awake). Drinking and locomotor activity (LMA) were recorded as discrete events every 10 seconds, while body temperature was recorded each minute. Locomotor activity was detected by a telemetry receiver (Mini-Mitter) beneath the cage. Telemetry measures (LMA and body temperature) were not part of the scoring algorithm; thus, sleep-scoring and telemetry data were independent measures.
Compounds were administered at CT-18, the peak of the activity-dominated period, in order to ensure prior wakefulness was sufficient to interact positively with hypnotic-drug effects, and sufficient time was allowed to view the time course of the treatment effect before lights-on (6 hours post-treatment). Compounds were suspended in sterile 0.25% or 0.5% methylcellulose (2 ml/kg). Treatments were administered as an intraperitoneal bolus.
A parallel group study design was employed. Vehicle controls were drawn from a large pool (N>200): a subset of the pooled vehicle controls was selected, based on computerized matching with the 24-hour pre-treatment baseline of the active treatment group.
In Table 1, N is the number of trials, and NREM and LUSB values are means adjusted for both baseline and vehicle control values. NREM represents the mean maximum cumulation of NREM sleep in minutes over baseline as a function of time in hours after treatment with the compound or the vehicle control; LUSB is the longest uninterrupted sleep bout each hour in minutes as a function of circadian time.

Row | Compound | LUSB (longest uninterrupted sleep bout each hour, mean adjusted for baseline and vehicle control) (3 mg/kg) [min] | NREM (mean maximum cumulation of NREM sleep over baseline, adjusted for baseline and vehicle control) (3 mg/kg) [min] | LUSB (longest uninterrupted sleep bout each hour, mean adjusted for baseline and vehicle control) (10 mg/kg) [min] | NREM (mean maximum cumulation of NREM sleep over baseline, adjusted for baseline and vehicle control) (10 mg/kg) [min] | Increase of NREM sleep cumulation versus vehicle control (FIGS. 1-3), in words (10 mg/kg) | LUSB (longest uninterrupted sleep bout each hour, mean adjusted for baseline and vehicle control) (30 mg/kg) [min] | NREM (mean maximum cumulation of NREM sleep over baseline, adjusted for baseline and vehicle control) (30 mg/kg) [min] | Increase of LUSB versus vehicle control (FIGS. 4-6), in words (30 mg/kg) | Increase of NREM sleep cumulation versus vehicle control (FIGS. 1-3), in words (30 mg/kg) | LUSB (longest uninterrupted sleep bout each hour, mean adjusted for baseline and vehicle control) (45 mg/kg) [min] | NREM (mean maximum cumulation of NREM sleep over baseline, adjusted for baseline and vehicle control) (45 mg/kg) [min]
1 | O=C(O)C1CCCN(CCC=C2c3ccccc3CCc3ccccc32)C1 (racemic) [Compound 1] | 4.7 | 15 | 2.8 | 24.8 | particularly effective | 4.9 | 35.4 | effective at increasing LUSB | effective at increasing NREM cumulation | – | –
2 | O=C(O)[C@@H]1CCCN(CCC=C2c3ccccc3CCc3ccccc32)C1 [Compound 1-R] | – | – | 2.5 | 3.4 | – | 5.8 | 20.7 | effective at increasing LUSB | effective at increasing NREM cumulation | 10.3 | 31.8
3 | O=C(O)[C@H]1CCCN(CCC=C2c3ccccc3CCc3ccccc32)C1 [Compound 1-S] | – | – | 5.5 | 31.9 | particularly effective | 9.7 | 31.8 | effective at increasing LUSB | effective at increasing NREM cumulation | – | –
